Patent US6372446B1, “Method of selectively determining a fungal biomass” (Mycometer ApS, priority 1997, dated 2002)

Tests used:
[1] = test system: Ascobolus crenulatus (AAS 1); assay: Screening of fungi for enzyme activity with 4-methylumbelliferone-labelled substrates; format: cell-based; settings: substrate 10 μM, 25° C., pH 5
[2] = test system: Paecilomyces farinosus (AGM 5); assay: as above; format: cell-based; settings: substrate 10 μM, 25° C., pH 5
[3] = test system: Aspergillus oryzae (AGM 11); assay: as above; format: cell-based; settings: substrate 10 μM, 25° C., pH 5
[4] = test system: Schizophyllum commune (AGM 25); assay: as above; format: cell-based; settings: substrate 10 μM, 25° C., pH 5
[5] = test system: Aspergillus versicolor (IBT 13738); assay: as above; format: cell-based; settings: substrate 10 μM, 25° C., pH 5
[6] = test system: Mucor racemosus (AAS 310); assay: as above; format: cell-based; settings: substrate 10 μM, 25° C., pH 5
[7] = test system: Aureobasidium pullulans (QM 3092); assay: as above; format: cell-based; settings: substrate 10 μM, 25° C., pH 5
all fungi tested = assay: Screening of a diverse selection of fungi for ability to degrade 11 substrates (summary); format: cell-based; settings: mineral medium and vegetable juice medium
Description: A number of fungi representing different taxonomic groupings were screened for enzyme activity. The fungi were grown for in 24 well plates (Nunclon Multidish, Life Technologies A/S) (well volume 3.4 ml) containing 1.5 ml of agarized growth medium. After a growth period of 10 days at 25° C., 1.5 ml citrate-phosphat buffer (pH 5) were added to the wells and one of 11 enzyme substrates were then added to each well and incubated for 5 hours at 25° C. after which the fluorescence of each well was measured. For each fungus two wells were incubated with each enzyme substrate. All substrates were used in a final concentration of 10 μM. The substrate only and the organism plus the agarized medium were included as controls. […] The fungi subjected to the assaying procedure were all obtained from the culture collection of the Department of General Microbiology at the University of Copenhagen, Denmark.

[8] = test system: Sodaria fimicola (AAS 17); assay: Screening of fungi for enzyme activity with 4-methylumbelliferone-labelled substrates; format: cell-based; settings: substrate 10 μM, 25° C., pH 5
[9] = test system: Rhizomucor pusillus (AAS 300); assay: as above; format: cell-based; settings: substrate 10 μM, 25° C., pH 5
[10] = test system: Penicillium solitum (IBT 13771); assay: as above; format: cell-based; settings: substrate 10 μM, 25° C., pH 5
[11] = test system: Cladosporium herbarum (AGM 8); assay: as above; format: cell-based; settings: substrate 10 μM, 25° C., pH 5
human hexosaminidase = assay: Cleavage of substrate in human blood and plasma samples; format: biochemical
Description: The diagnostic method detects fungal β-N-acetylhexosaminidase activity in human plasma. […] However, it was discovered that this human hexosaminidase activity can be eliminated by a pre-treatment step comprising precipitation e.g. by adding ammonium sulphate (70% saturation) to the human plasma samples. […] In the samples containing C. albicans culture fluid more than 75% of the fungal β-N-acetylhexosaminidase activity remained after precipitation step to eliminate interfering human enzyme activity. […] After incubation, 300 μl Tris buffer (2.5 M) was added to the mixture to increase the pH to above 9 and the fluorescence measured. This procedure was tested on plasma from different control subjects with no known previous fungal infections. Culture fluids from cultivation of C. albicans or of A. fumigatus containing β-N-acetylhexosaminidase activity were added to the plasma samples. […] After the incubation, Tris buffer was added and the fluorescence formed was measured against the control samples. The presence of fungal β-N-acetylhexosaminidase activity was detected and the fluorescence was proportional to the amount of fungal β-N-acetylhexosaminidase added.

Eurotium sp. (AAS 36) = assay: Screening of fungi for enzyme activity with 4-methylumbelliferone-labelled substrates; format: cell-based; settings: substrate 10 μM, 25° C., pH 5
[12] = test system: Trametes versicolor (AGM 24); assay: as above; format: cell-based; settings: substrate 10 μM, 25° C., pH 5
[13] = test system: Penicillium commune (IBT 13713); assay: as above; format: cell-based; settings: substrate 10 μM, 25° C., pH 5

## CC(=O)N[C@H]1[C@H](Oc2ccc3c(C)cc(=O)oc3c2)O[C@H](CO)[C@@H](O)[C@@H]1O [substrate 3, 4-methylumbelliferyl N-acetyl-β-D-blucosaminide]
[1]; mineral medium
  Enzyme activity: amount of released 4-methylumbelliferone: *** (2 ≦ ***)
[1]; vegetable juice medium
  Enzyme activity: amount of released 4-methylumbelliferone during 5 hours of incubation: *** (2 ≦ ***)
[2]; mineral medium
  Enzyme activity: amount of released 4-methylumbelliferone: *** (2 ≦ ***)
[2]; vegetable juice medium
  Enzyme activity: amount of released 4-methylumbelliferone during 5 hours of incubation: *** (2 ≦ ***)
[3]; mineral medium
  Enzyme activity: amount of released 4-methylumbelliferone: *** (2 ≦ ***)
[3]; vegetable juice medium
  Enzyme activity: amount of released 4-methylumbelliferone during 5 hours of incubation: *** (2 ≦ ***)
[4]; mineral medium
  Enzyme activity: amount of released 4-methylumbelliferone: *** (2 ≦ ***)
[4]; vegetable juice medium
  Enzyme activity: amount of released 4-methylumbelliferone during 5 hours of incubation: *** (2 ≦ ***)
[5]; mineral medium
  Enzyme activity: amount of released 4-methylumbelliferone: ** (1 ≦ ** 2)
[5]; vegetable juice medium
  Enzyme activity: amount of released 4-methylumbelliferone during 5 hours of incubation: *** (2 ≦ ***)
[6]; mineral medium
  Enzyme activity: amount of released 4-methylumbelliferone: *** (2 ≦ ***)
[6]; vegetable juice medium
  Enzyme activity: amount of released 4-methylumbelliferone during 5 hours of incubation: *** (2 ≦ ***)
[7]; Aureobasidium pulluians (QM 3092), vegetable juice medium
  Enzyme activity: amount of released 4-methylumbelliferone during 5 hours of incubation: *** (2 ≦ ***)
[7]; Aureobasidium pullulans (QM 3092), mineral medium
  Enzyme activity: amount of released 4-methylumbelliferone: *** (2 ≦ ***)
All fungi tested
  ability to degrade the substrate: could be demonstrated in all fungi tested
[8]; mineral medium
  Enzyme activity: amount of released 4-methylumbelliferone: ** (1 ≦ ** 2)
[8]; vegetable juice medium
  Enzyme activity: amount of released 4-methylumbelliferone during 5 hours of incubation: *** (2 ≦ ***)
[9]; mineral medium
  Enzyme activity: amount of released 4-methylumbelliferone: * (0.4 ≦ * < 1)
[9]; vegetable juice medium
  Enzyme activity: amount of released 4-methylumbelliferone during 5 hours of incubation: *** (2 ≦ ***)
[10]; mineral medium
  Enzyme activity: amount of released 4-methylumbelliferone: *** (2 ≦ ***)
[10]; vegetable juice medium
  Enzyme activity: amount of released 4-methylumbelliferone during 5 hours of incubation: *** (2 ≦ ***)
[11]; mineral medium
  Enzyme activity: amount of released 4-methylumbelliferone: ** (1 ≦ ** 2)
[11]; vegetable juice medium
  Enzyme activity: amount of released 4-methylumbelliferone during 5 hours of incubation: ** (1 ≦ ** 2)
Human hexosaminidase
  cleavage by human hexosaminidase: also cleaved by human hexosaminidase
Eurotium sp. (AAS 36); mineral medium
  Enzyme activity: amount of released 4-methylumbelliferone: *** (2 ≦ ***)
Eurotium sp. (AAS 36); vegetable juice medium
  Enzyme activity: amount of released 4-methylumbelliferone during 5 hours of incubation: *** (2 ≦ ***)
[12]; mineral medium
  Enzyme activity: amount of released 4-methylumbelliferone: ** (1 ≦ ** 2)
[12]; vegetable juice medium
  Enzyme activity: amount of released 4-methylumbelliferone during 5 hours of incubation: *** (2 ≦ ***)
[13]; mineral medium
  Enzyme activity: amount of released 4-methylumbelliferone: ** (1 ≦ ** 2)
[13]; vegetable juice medium
  Enzyme activity: amount of released 4-methylumbelliferone during 5 hours of incubation: *** (2 ≦ ***)
